From ChEMBL document CHEMBL1133362, “Discovery and evaluation of potent, cysteine-based alpha4beta1 integrin antagonists” (Bioorg Med Chem Lett, 2000)

Molecular target: Integrin alpha-4/beta-1 (Homo sapiens, UniProt P05556+P13612)
Test: Inhibition of VCAM (vascular cell adhesion molecule) adhesion to alpha4-beta1 integrin of leukocyte cells
Assay type: functional, cell-based

Sequence of Integrin alpha-4/beta-1 (P05556 whole entry): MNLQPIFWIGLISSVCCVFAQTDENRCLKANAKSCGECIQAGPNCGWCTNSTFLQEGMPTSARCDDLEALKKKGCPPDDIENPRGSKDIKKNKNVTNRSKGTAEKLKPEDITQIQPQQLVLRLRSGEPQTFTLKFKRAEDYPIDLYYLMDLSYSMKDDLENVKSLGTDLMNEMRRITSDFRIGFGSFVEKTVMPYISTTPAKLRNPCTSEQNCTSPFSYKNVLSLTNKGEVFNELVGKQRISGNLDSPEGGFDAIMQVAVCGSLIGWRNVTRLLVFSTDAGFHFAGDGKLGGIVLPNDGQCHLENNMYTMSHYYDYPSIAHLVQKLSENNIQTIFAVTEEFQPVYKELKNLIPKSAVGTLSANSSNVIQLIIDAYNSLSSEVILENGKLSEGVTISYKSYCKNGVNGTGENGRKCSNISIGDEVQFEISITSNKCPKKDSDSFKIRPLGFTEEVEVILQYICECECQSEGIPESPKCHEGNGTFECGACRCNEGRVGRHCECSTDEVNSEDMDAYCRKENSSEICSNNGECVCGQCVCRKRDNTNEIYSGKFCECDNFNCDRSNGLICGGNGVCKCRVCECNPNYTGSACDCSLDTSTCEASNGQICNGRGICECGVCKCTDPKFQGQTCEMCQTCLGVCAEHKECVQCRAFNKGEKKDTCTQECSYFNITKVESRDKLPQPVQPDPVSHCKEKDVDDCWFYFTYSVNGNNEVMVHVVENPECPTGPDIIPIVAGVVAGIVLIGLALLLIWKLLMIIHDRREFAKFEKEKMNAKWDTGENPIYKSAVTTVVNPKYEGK
Sequence of Integrin alpha-4/beta-1 (P13612 whole entry): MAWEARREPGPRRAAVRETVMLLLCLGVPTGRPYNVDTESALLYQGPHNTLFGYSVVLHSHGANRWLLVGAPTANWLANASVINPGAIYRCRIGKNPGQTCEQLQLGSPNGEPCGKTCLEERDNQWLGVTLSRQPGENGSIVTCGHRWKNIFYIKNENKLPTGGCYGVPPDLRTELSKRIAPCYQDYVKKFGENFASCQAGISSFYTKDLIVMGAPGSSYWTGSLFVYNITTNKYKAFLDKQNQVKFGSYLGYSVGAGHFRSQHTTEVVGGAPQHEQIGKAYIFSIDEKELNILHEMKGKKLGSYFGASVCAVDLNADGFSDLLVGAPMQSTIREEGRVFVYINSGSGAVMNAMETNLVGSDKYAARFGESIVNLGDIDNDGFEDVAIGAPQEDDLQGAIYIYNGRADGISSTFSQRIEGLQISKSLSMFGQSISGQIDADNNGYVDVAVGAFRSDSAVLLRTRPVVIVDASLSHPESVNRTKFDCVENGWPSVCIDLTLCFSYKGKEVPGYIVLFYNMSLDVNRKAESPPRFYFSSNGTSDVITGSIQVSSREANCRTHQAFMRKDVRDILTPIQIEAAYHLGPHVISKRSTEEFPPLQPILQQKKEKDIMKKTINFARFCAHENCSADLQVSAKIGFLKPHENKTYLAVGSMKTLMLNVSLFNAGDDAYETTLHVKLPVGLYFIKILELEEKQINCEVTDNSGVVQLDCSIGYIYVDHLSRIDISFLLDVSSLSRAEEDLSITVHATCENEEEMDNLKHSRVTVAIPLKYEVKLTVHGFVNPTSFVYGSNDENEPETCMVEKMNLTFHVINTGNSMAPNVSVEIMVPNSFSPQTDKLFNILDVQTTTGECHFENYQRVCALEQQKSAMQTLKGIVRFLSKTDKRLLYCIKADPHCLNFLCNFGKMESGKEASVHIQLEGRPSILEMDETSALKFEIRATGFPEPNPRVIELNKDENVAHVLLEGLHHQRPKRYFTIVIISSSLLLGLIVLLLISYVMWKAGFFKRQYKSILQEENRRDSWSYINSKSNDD

O=C(O)[C@H](CSSCCNC(=O)C12CC3CC(CC(C3)C1)C2)NC(=O)C12CC3CC(CC(C3)C1)C2
IC50: 4100 nM

O=C(O)C[C@H]1CN2CCCC[C@H]2C(=O)N[C@H](C(=O)O)CSSC[C@H](NC(=O)C23CC4CC(CC(C4)C2)C3)C(=O)N1
IC50: 12 nM

O=C(O)C[C@H]1CN2CSC[C@H]2C(=O)N[C@H](C(=O)O)CSSC[C@H](NC(=O)C23CC4CC(CC(C4)C2)C3)C(=O)N1
IC50: 47 nM

CC(=O)N1CSC[C@H]1C(=O)N[C@@H](CSSCCNC(=O)C12CC3CC(CC(C3)C1)C2)C(=O)O
IC50: 280 nM

O=C(O)[C@H](CSSC[C@H](NC(=O)C12CC3CC(CC(C3)C1)C2)C(=O)O)NC(=O)C12CC3CC(CC(C3)C1)C2
IC50: 7300 nM

COC(=O)[C@H](CSSC[C@H](NC(=O)C12CC3CC(CC(C3)C1)C2)C(=O)O)NC(=O)C12CC3CC(CC(C3)C1)C2
IC50: 5100 nM

COC(=O)[C@H](CSSC[C@H](NC(=O)[C@@H]1CCCN1C(C)=O)C(=O)O)NC(=O)C12CC3CC(CC(C3)C1)C2
IC50: 25200 nM

O=C(O)C[C@H]1CN2CCC[C@H]2C(=O)N[C@H](C(=O)O)CSSC[C@H](NC(=O)C23CC4CC(CC(C4)C2)C3)C(=O)N1
IC50: 170 nM

CC(=O)N1CCC[C@H]1C(=O)N[C@@H](CSSCCNC(=O)C12CC3CC(CC(C3)C1)C2)C(=O)O
IC50: 2340 nM

CC(=O)N1CCCC[C@H]1C(=O)N[C@@H](CSSCCNC(=O)C12CC3CC(CC(C3)C1)C2)C(=O)O
IC50: 425 nM

C[C@H]1CN2CCC[C@H]2C(=O)N[C@H](C(=O)O)CSSC[C@H](NC(=O)C23CC4CC(CC(C4)C2)C3)C(=O)N1
IC50: 330 nM

COC(=O)[C@H](CSSC[C@H](NC(=O)C12CC3CC(CC(C3)C1)C2)C(=O)OC)NC(=O)C12CC3CC(CC(C3)C1)C2
IC50: > 800000 nM
